Patent publication US20060292653A1, “Metal mediated fluorescence superquenching assays for detection of phosphorylation and dephosphorylation of quencher-labeled substrates” (priority 2005, published 2006)

Legend:
Format in all cases: biochemical
[1] = molecular target: T1, PI3 delta (Homo sapiens, UniProt O00329); experiment: Enhancer activity, real-time (kinetic) versus endpoint monitoring
T1 construct: purchased Upstate (Lake Placid, N.Y.)
Source text: (§1) Kinetic or real-time assays allow one to observe the mode of action of inhibitors and activator of enzyme activity in “real time”. Several inhibitor profiles are contemplated herein.
(§2) Another type of inhibitor profile utilizes the mode of action of enhancers. Enhancers may cause a very steep increase in activity (compared to control) within several minutes of reaction and then flatten out over time to an activity equal to that of the control. Thus, endpoint measurement could miss these enhancers. For example, Trypohostin 35, Trypohostin 25 and GW 5074 are enhancers of PI3 alpha, beta, and delta, respectively, in real time, and result in a >50% increase of activity within 5 minutes of reaction compared to ˜20% when monitored in endpoint mode. Enhancers may not be of therapeutic value for PI3Ks (since their pathological effect is exerted mainly by over-activity to begin with) but knowledge of chemical structure of enhancers may facilitate identification and/or confirmation of environmental pathogens, which may cause disease.

[2] = molecular target: T2, PI3K δ (Homo sapiens, UniProt O00329); conditions: ratiometric 490 nm/574 nm
T2 construct: purchased Upstate (Lake Placid, N.Y.)
Method: Percent activities are plotted for each compound screened using the ratio of wavelengths at 490 nm/574 nm. Inhibition values were calculated relative to positive and negative controls wells and corrected for background (filled squares, filled diamonds). […] Final concentrations of enzyme, substrate and ATP were 2.6 nM, 250 nM and 50 μM. The delta RFU between reactions in the presence and absence of enzyme were obtained and used to calculate % inhibition.

[3] = molecular target: T3, PI3 beta (Homo sapiens, UniProt P42338); experiment: Enhancer activity, real-time (kinetic) versus endpoint monitoring
T3 construct: purchased Upstate (Lake Placid, N.Y.)
Source text: as §1, §2

[4] = molecular target: T4, PI3 alpha (Homo sapiens, UniProt P42336); experiment: as above
T4 construct: purchased Upstate (Lake Placid, N.Y.)
Source text: as §1, §2

[5] = real time, within 5 minutes of reaction

T3 sequence (P42338 whole entry): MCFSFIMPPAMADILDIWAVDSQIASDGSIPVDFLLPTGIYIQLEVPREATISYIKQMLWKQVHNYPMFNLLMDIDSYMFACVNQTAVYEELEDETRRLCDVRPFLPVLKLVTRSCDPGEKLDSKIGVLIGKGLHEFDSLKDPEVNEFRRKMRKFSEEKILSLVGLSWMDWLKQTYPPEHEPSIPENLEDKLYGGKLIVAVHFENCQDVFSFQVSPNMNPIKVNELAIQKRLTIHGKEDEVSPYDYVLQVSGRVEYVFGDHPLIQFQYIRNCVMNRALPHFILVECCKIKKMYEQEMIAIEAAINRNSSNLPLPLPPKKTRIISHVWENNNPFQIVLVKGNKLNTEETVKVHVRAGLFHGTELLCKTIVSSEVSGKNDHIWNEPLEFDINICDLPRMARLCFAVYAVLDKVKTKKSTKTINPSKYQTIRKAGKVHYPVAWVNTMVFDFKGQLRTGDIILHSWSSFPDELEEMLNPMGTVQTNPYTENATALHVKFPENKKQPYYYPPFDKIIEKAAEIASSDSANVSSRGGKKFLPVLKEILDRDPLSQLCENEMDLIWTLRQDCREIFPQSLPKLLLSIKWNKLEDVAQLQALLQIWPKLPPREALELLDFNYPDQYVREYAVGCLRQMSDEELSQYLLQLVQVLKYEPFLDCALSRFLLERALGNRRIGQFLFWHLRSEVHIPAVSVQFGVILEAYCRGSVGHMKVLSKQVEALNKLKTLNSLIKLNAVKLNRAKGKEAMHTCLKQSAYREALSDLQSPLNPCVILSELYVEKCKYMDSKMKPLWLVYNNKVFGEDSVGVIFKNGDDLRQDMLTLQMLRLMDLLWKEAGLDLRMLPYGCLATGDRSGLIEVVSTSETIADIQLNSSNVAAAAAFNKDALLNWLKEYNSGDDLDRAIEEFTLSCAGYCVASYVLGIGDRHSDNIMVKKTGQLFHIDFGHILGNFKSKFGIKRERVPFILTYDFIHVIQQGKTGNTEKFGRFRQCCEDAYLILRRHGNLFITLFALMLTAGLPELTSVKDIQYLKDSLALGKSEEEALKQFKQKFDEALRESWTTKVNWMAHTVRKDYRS
T3 sequence (P27986 whole entry partner): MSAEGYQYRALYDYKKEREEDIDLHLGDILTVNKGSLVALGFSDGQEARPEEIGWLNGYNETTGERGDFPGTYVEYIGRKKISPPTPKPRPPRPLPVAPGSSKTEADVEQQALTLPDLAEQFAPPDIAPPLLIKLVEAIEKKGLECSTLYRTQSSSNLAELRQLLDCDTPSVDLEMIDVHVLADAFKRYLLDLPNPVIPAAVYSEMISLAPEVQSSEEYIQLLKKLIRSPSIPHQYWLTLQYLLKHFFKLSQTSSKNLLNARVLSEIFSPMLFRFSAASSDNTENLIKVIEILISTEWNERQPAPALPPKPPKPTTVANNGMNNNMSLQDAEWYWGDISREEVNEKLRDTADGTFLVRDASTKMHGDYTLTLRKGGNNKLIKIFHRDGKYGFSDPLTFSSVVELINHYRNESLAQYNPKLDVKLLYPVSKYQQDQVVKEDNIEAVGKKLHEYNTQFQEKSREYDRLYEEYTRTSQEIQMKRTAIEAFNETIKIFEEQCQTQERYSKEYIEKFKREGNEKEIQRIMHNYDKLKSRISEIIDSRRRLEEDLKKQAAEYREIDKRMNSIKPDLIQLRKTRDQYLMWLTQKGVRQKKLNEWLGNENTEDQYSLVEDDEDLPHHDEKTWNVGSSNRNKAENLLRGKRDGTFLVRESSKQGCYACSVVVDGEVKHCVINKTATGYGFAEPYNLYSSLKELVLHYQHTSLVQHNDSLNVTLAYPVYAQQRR
T1 sequence (O00329 whole entry, species assumed): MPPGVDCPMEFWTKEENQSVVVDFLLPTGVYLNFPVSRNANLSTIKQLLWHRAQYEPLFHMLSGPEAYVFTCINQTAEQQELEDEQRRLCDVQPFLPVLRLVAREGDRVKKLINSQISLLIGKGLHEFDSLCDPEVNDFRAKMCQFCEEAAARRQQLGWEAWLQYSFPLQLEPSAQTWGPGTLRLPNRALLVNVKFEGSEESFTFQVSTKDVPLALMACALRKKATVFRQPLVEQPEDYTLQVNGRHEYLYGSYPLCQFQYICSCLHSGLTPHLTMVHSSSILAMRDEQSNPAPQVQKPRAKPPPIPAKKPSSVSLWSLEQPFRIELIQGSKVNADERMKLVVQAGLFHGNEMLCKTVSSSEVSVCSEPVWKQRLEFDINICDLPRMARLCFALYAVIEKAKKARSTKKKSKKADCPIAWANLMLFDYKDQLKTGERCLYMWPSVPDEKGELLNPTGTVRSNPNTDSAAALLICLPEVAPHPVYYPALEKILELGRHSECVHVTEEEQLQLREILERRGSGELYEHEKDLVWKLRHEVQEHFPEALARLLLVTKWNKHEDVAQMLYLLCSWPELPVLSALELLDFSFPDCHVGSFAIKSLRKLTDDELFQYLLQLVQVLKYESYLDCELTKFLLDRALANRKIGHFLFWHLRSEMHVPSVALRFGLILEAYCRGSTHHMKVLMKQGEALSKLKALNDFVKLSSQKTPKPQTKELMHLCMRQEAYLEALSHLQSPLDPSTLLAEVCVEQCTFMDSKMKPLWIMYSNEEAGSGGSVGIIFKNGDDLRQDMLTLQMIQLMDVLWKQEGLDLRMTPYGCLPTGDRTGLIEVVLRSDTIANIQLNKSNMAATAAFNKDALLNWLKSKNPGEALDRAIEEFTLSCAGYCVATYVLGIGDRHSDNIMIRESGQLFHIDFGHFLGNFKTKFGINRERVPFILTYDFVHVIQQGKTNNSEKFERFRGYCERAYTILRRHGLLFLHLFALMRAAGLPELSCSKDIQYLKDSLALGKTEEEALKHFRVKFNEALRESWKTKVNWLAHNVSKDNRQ
T1 sequence (P27986 whole entry partner, species assumed): as the sequence (P27986 whole entry partner) above
T4 sequence (P42336 whole entry, species assumed): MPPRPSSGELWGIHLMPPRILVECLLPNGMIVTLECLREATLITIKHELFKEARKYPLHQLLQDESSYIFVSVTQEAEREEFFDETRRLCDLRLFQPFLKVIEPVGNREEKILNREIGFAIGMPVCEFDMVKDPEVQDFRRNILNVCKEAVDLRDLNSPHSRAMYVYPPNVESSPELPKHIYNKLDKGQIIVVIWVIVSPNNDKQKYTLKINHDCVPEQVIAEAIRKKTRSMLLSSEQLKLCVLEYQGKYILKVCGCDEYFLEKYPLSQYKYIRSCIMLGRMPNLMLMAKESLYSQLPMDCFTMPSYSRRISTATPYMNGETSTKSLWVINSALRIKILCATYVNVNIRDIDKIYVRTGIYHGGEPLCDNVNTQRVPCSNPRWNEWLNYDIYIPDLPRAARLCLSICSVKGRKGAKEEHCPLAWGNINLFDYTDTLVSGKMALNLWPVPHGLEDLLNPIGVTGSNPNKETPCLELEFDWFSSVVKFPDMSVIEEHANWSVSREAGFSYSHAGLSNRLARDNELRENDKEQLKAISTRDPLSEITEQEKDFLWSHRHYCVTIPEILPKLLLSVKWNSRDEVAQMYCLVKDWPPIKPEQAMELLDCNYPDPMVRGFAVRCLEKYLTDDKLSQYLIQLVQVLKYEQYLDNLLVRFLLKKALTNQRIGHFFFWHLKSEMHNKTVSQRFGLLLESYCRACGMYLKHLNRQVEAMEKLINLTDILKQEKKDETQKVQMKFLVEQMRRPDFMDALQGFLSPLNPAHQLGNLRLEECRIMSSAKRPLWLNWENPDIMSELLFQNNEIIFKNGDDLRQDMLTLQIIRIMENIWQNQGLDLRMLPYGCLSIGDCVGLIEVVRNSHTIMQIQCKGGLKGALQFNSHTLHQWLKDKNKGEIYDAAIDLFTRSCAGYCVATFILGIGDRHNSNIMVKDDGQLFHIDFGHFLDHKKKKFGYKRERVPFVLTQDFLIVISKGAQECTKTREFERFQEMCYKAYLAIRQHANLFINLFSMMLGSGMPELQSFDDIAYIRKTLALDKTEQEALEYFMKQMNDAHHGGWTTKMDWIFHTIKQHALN
T4 sequence (P27986 whole entry partner, species assumed): as the sequence (P27986 whole entry partner) above
T2 sequence (O00329 whole entry, species assumed): as the sequence (O00329 whole entry, species assumed) above
T2 sequence (P27986 whole entry partner, species assumed): as the sequence (P27986 whole entry partner) above

## O=C1Nc2ccc(I)cc2/C1=C/c1cc(Br)c(O)c(Br)c1 [GW 5074]
[1]; endpoint mode
  increase of activity compared to control: ~20%
[1]; [5]
  increase of activity compared to control: > 50%

## O.O.O=c1c(O)c(-c2ccc(O)c(O)c2)oc2cc(O)cc(O)c12 [Quercetin Dihydrate]
[2]
  identification as inhibitor in the 84 compound screen: correctly identified

## N#CC(C#N)=Cc1cc(O)c(O)c(O)c1 [Trypohostin 25]
[3]; endpoint mode
  increase of activity compared to control: ~20%
[3]; [5]
  increase of activity compared to control: > 50%

## Trypohostin 35
[4]; endpoint mode
  increase of activity compared to control: ~20%
[4]; [5]
  increase of activity compared to control: > 50%
